Test results as given in the supplement of paper PMC10307832.

Key:
Experiment in all cases: relative viability (nuclei count vs DMSO), 5 days (fraction); higher = more cells survive
[1] = tested on: RERF-LC-KJ
Method in brief: (§1)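 Values are medians from duplicate plates. Each reflects relative viability, defined as the nuclei count of treated wells over that of vehicle wells. Lung cancer cell lines in 1536-well plates were pin-tool dosed one day after seeding with one drug alone or with a fixed anchor-drug dose plus five library-drug doses (not always all listed) in √10 steps, then fixed, stained and imaged at 4× after 5 days.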

[2] = tested on: EBC-1
Method in brief: as §1

[3] = tested on: NCI-H520
Method in brief: as §1

[4] = tested on: NCI-H1651
Method in brief: as §1

[5] = tested on: Calu-6
Method in brief: as §1

[6] = tested on: A549
Method in brief: as §1

[7] = tested on: IA-LM
Method in brief: as §1

[8] = tested on: NCI-H1299
Method in brief: as §1

[9] = tested on: NCI-H1703
Method in brief: as §1

## C=C1C(=O)O[C@@H](CCCCCCCC)[C@@H]1C(=O)O [C-75] + Cc1nc(NC(=O)N2CCC[C@H]2C(N)=O)sc1-c1ccnc(C(C)(C)C(F)(F)F)c1 [Alpelisib] (partner 2 µM)
[1]; first compound 0.08 µM
  relative viability: 0.834
[1]; first compound 0.253 µM
  relative viability: 0.875
[1]; first compound 0.8 µM
  relative viability: 0.817
[1]; first compound 2.53 µM
  relative viability: 0.765
[1]; first compound 8 µM
  relative viability: 0.979
[2]; first compound 0.08 µM
  relative viability: 0.904
[2]; first compound 0.253 µM
  relative viability: 0.763
[2]; first compound 0.8 µM
  relative viability: 0.792
[2]; first compound 2.53 µM
  relative viability: 0.7
[2]; first compound 8 µM
  relative viability: 0.712
[3]; first compound 0.08 µM
  relative viability: 0.836
[3]; first compound 0.253 µM
  relative viability: 1.09
[3]; first compound 0.8 µM
  relative viability: 1.02
[3]; first compound 2.53 µM
  relative viability: 0.996
[3]; first compound 8 µM
  relative viability: 1.01
[4]; first compound 0.08 µM
  relative viability: 0.871
[4]; first compound 0.253 µM
  relative viability: 0.988
[4]; first compound 0.8 µM
  relative viability: 1.02
[4]; first compound 2.53 µM
  relative viability: 0.793
[4]; first compound 8 µM
  relative viability: 0.882
[5]; first compound 0.08 µM
  relative viability: 1.04
[5]; first compound 0.253 µM
  relative viability: 0.926
[5]; first compound 0.8 µM
  relative viability: 0.983
[5]; first compound 2.53 µM
  relative viability: 0.796
[5]; first compound 8 µM
  relative viability: 0.932
[6]; first compound 0.08 µM
  relative viability: 0.828
[6]; first compound 0.253 µM
  relative viability: 0.909
[6]; first compound 0.8 µM
  relative viability: 0.824
[6]; first compound 2.53 µM
  relative viability: 0.579
[6]; first compound 8 µM
  relative viability: 0.716
[7]; first compound 0.08 µM
  relative viability: 0.71
[7]; first compound 0.253 µM
  relative viability: 0.815
[7]; first compound 0.8 µM
  relative viability: 0.74
[7]; first compound 2.53 µM
  relative viability: 0.648
[7]; first compound 8 µM
  relative viability: 0.761
[8]; first compound 0.08 µM
  relative viability: 1.04
[8]; first compound 0.253 µM
  relative viability: 0.979
[8]; first compound 0.8 µM
  relative viability: 1.1
[8]; first compound 2.53 µM
  relative viability: 0.966
[8]; first compound 8 µM
  relative viability: 1.07
[9]; first compound 0.08 µM
  relative viability: 0.337
[9]; first compound 0.253 µM
  relative viability: 0.348
[9]; first compound 0.8 µM
  relative viability: 0.325
[9]; first compound 2.53 µM
  relative viability: 0.28
[9]; first compound 8 µM
  relative viability: 0.327

## CC1(C)CCC(c2ccc(Cl)cc2)=C(CN2CCN(c3ccc(C(=O)NS(=O)(=O)c4ccc(N[C@H](CCN5CCOCC5)CSc5ccccc5)c(S(=O)(=O)C(F)(F)F)c4)cc3)CC2)C1 [Navitoclax] + CS(=O)(=O)CCNCc1ccc(-c2ccc3ncnc(Nc4ccc(OCc5cccc(F)c5)c(Cl)c4)c3c2)o1 [Lapatinib] (partner 2 µM)
[1]; first compound 0.005 µM
  relative viability: 0.857
[1]; first compound 0.01581 µM
  relative viability: 0.809
[1]; first compound 0.05 µM
  relative viability: 0.75
[1]; first compound 0.1581 µM
  relative viability: 0.852
[1]; first compound 0.5 µM
  relative viability: 0.884
[2]; first compound 0.005 µM
  relative viability: 0.181
[2]; first compound 0.01581 µM
  relative viability: 0.2
[2]; first compound 0.05 µM
  relative viability: 0.193
[2]; first compound 0.1581 µM
  relative viability: 0.245
[2]; first compound 0.5 µM
  relative viability: 0.212
[3]; first compound 0.005 µM
  relative viability: 0.855
[3]; first compound 0.01581 µM
  relative viability: 0.965
[3]; first compound 0.05 µM
  relative viability: 0.967
[3]; first compound 0.1581 µM
  relative viability: 0.763
[3]; first compound 0.5 µM
  relative viability: 0.758
[4]; first compound 0.005 µM
  relative viability: 0.767
[4]; first compound 0.01581 µM
  relative viability: 0.984
[4]; first compound 0.1581 µM
  relative viability: 0.803
[4]; first compound 0.5 µM
  relative viability: 0.837
[5]; first compound 0.005 µM
  relative viability: 1.14
[5]; first compound 0.01581 µM
  relative viability: 1.13
[5]; first compound 0.05 µM
  relative viability: 1.05
[5]; first compound 0.1581 µM
  relative viability: 1.04
[5]; first compound 0.5 µM
  relative viability: 1.01
[6]; first compound 0.005 µM
  relative viability: 1.06
[6]; first compound 0.01581 µM
  relative viability: 1.02
[6]; first compound 0.05 µM
  relative viability: 1.07
[6]; first compound 0.1581 µM
  relative viability: 0.945
[6]; first compound 0.5 µM
  relative viability: 0.949
[7]; first compound 0.005 µM
  relative viability: 0.659
[7]; first compound 0.01581 µM
  relative viability: 1.16
[7]; first compound 0.05 µM
  relative viability: 1.06
[7]; first compound 0.1581 µM
  relative viability: 1.02
[7]; first compound 0.5 µM
  relative viability: 0.903
[8]; first compound 0.005 µM
  relative viability: 0.931
[8]; first compound 0.01581 µM
  relative viability: 0.956
[8]; first compound 0.05 µM
  relative viability: 1
[8]; first compound 0.1581 µM
  relative viability: 0.979
[8]; first compound 0.5 µM
  relative viability: 1
[9]; first compound 0.005 µM
  relative viability: 0.928
[9]; first compound 0.01581 µM
  relative viability: 1.18
[9]; first compound 0.05 µM
  relative viability: 1.34
[9]; first compound 0.1581 µM
  relative viability: 1.27
[9]; first compound 0.5 µM
  relative viability: 1.01
